Holding throughout (set-up): species or system Hepatitis C virus
The subject of one assay is HCV replicon 1A. As to the kind of experiment: Cell-based HCV replicon assay (Replicon Assay A), replicon 1A. Conditions: replicon RNA by real time PCR, day 3. An outline of the steps:
(§1)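 Replicon cells were seeded at 2000/well with compound, 10 serial dilutions starting at 333.3 nM to 1.667 nM, in 0.5% DMSO and 5% FBS, then harvested on day 3. Replicon RNA was measured by multiplex TaqMan RT-PCR with cyclophilin as endogenous control. EC50 is the concentration raising Ct by 1 over projected baseline.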
In general terms: A replicon is a self-replicating genome or part of one, used to study replication in cells.

The subject of another assay is HCV replicon 1B. As to the kind of experiment: Cell-based HCV replicon assay (Replicon Assay B), replicon 1B. Conditions: replicon RNA by real-time PCR, 3 days. The procedure: In an alternate assay (“Replicon Assay B”), 1000 cells were seeded per well in a 384-well collagen coated black plate from Greiner bio-one (Cat #781946) in 5% FBS. Inhibitors of this invention were added at 24 h post-seeding, and the plates were incubated for 3 days. Cells were subsequently lysed with Qiagen lysis buffer (Cat #1062731) to extract the RNA. HCV replicon RNA level was measured by real-time PCR using the RNA-to-CT kit from Applied Biosystem (Cat #4392656) and genotype-specific primers and probes. The amplicon was located within NS5B. […] (SEQ. ID NO. 2); the probe sequence was FAM-labeled […] (SEQ. ID NO. 3).
The real-time RT-PCR reactions were run on ABI PRISM 7900HT or Viia7 Sequence Detection System using the following program: 48° C. for 30 minutes, 95° C. for 10 minutes, 40 cycles of 95° C. for 15 sec, 60° C. for 1 minutes.
EC50 data for replicons 1A, 1AY93H and 2B were obtained using Replicon Assay A and EC50 data for replicon 1B was obtained using Replicon Assay B.

The test system of a further assay is HCV replicon 1A Y93H. As to the kind of experiment: Cell-based HCV replicon assay (Replicon Assay A), replicon 1AY93H. Conditions: read-out: EC50 replicon 1A Y93H; Replicon Assay A; replicon RNA by real time PCR, day 3. In a few lines:
as §1

The next assay relates to HCV replicon 2B. As to the kind of experiment: Cell-based HCV replicon assay (Replicon Assay A), replicon 2B. Conditions: read-out: EC50 replicon 2B; Replicon Assay A; replicon RNA by real time PCR, day 3. In a few lines: as §1

Here are results for nine compounds from patent US10738062B2, “Chromane-substituted tetracyclic compounds and uses thereof for the treatment of viral diseases” (Merck Sharp & Dohme Corp., priority 2016, dated 2020).

In general, EC50 refers to the concentration that produces a half-maximal response.

Molecules are shown by their SMILES.

`COC(=O)NC(C(=O)N1[C@@H]2C[C@@H]2C[C@H]1c1ncc(-c2ccc3c(c2)cc2n3C(c3ccc4c(c3)OCCC4)Oc3cc(-c4cnc([C@@H]5CCCN5C(=O)[C@@H](NC(=O)OC)C(C)C)[nH]4)cc(F)c3-2)[nH]1)C1CCO[C@H](C)C1` (single isomer, unassigned) [Compound 82]: the EC50 in the assay with HCV replicon 1A amounted to 1.7 pM; in the assay on HCV replicon 1B (Hepatitis C virus, 72 h), 2.1 pM; with HCV replicon 1A Y93H, 3 pM; with HCV replicon 2B it was 4 pM.

On to `COC(=O)NC(C(=O)N1CCC[C@H]1c1ncc(-c2ccc3c(c2)cc2n3C(c3ccc4c(c3)OCCC4)Oc3cc(-c4cnc([C@@H]5CCCN5C(=O)[C@@H](NC(=O)OC)C(C)C)[nH]4)cc(C)c3-2)[nH]1)C1C[C@@H](C)O[C@@H](C)C1` (single isomer, unassigned) [Compound 86], for which the EC50 in the assay with HCV replicon 1A amounted to 3 pM; with HCV replicon 1B (Hepatitis C virus, 72 h), 2.7 pM; in the assay with HCV replicon 1A Y93H, 28 pM; in the assay with HCV replicon 2B, 7 pM.

With `COC(=O)NC(C(=O)N1CCC[C@H]1c1ncc(-c2cc(F)c3c(c2)OC(c2ccc4c(c2)OCCC4)n2c-3cc3cc(-c4cnc([C@@H]5CCCN5C(=O)[C@@H](NC(=O)OC)C5CCOCC5)[nH]4)ccc32)[nH]1)C(C)(C)F` (single isomer, unassigned) [Compound 87], the 50% effective concentration (EC50) in the assay with HCV replicon 1A was determined as 2.3 pM; in the assay on HCV replicon 1B (Hepatitis C virus, 72 h), 3.4 pM; in the assay on HCV replicon 1A Y93H, 528 pM; in the assay on HCV replicon 2B it was 133 pM.

For `COC(=O)NC(C(=O)N1CCC[C@H]1c1ncc(-c2cc(F)c3c(c2)OC(c2ccc4c(c2)OCCC4)n2c-3cc3cc(-c4cnc([C@@H]5CCCN5C(=O)[C@@H](NC(=O)OC)C5CCOCC5)[nH]4)ccc32)[nH]1)C(C)(C)F` (single isomer, unassigned) [Compound 88], the EC50 worked out at 14.9 pM with HCV replicon 1A, 2.6 pM in the assay with HCV replicon 1B, 9930 pM in the assay on HCV replicon 1A Y93H and 3110 pM with HCV replicon 2B.

With `COC(=O)NC(C(=O)N1CCC[C@H]1c1ncc(-c2cc(F)c3c(c2)OC(c2ccc4c(c2)OCCC4)n2c-3cc3cc(-c4cnc([C@@H]5CCCN5C(=O)[C@@H](NC(=O)OC)C5CCOCC5)[nH]4)ccc32)[nH]1)C(C)(C)F` (single isomer, unassigned) [Compound 89], the concentration for a half-maximal effect (EC50) turned out to be 2.1 pM in the assay on HCV replicon 1A, 3.1 pM in the assay on HCV replicon 1B, 17 pM in the assay on HCV replicon 1A Y93H and 15 pM in the assay with HCV replicon 2B.

Consider `COC(=O)NC(C(=O)N1CCC[C@H]1c1ncc(-c2cc(F)c3c(c2)OC(c2ccc4c(c2)OCCC4)n2c-3cc3cc(-c4cnc([C@@H]5CCCN5C(=O)[C@@H](NC(=O)OC)C5CCOCC5)[nH]4)ccc32)[nH]1)C(C)(C)F` (single isomer, unassigned) [Compound 90], for which the half-maximal effective concentration (EC50) worked out at 1.7 pM in the assay on HCV replicon 1A, 3.2 pM in the assay with HCV replicon 1B, 47 pM in the assay with HCV replicon 1A Y93H and 157 pM in the assay on HCV replicon 2B.

For the compound `COC(=O)N[C@H](C(=O)N1CCC[C@H]1c1ncc(-c2cc(F)c3c(c2)OC(c2ccc4c(c2)OCCC4)n2c-3c(F)c3cc(-c4cnc([C@@H]5CCCN5C(=O)[C@@H](NC(=O)OC)C5CCOCC5)[nH]4)ccc32)[nH]1)C(C)C` (single isomer, unassigned) [Compound 92], the EC50 worked out at 1.5 pM in the assay on HCV replicon 1A; 2.4 pM in the assay on HCV replicon 1B (Hepatitis C virus, 72 h); 6 pM in the assay with HCV replicon 1A Y93H; 6 pM in the assay on HCV replicon 2B.

For the compound `COC(=O)NC(C(=O)N1CCC[C@H]1c1ncc(-c2ccc3c(c2)cc2n3C(c3ccc4c(c3)OCCC4)Oc3cc(-c4cnc([C@@H]5CCCN5C(=O)[C@@H](NC(=O)OC)C(C)C)[nH]4)cc(F)c3-2)[nH]1)C1CCO[C@H](C)C1` (single isomer, unassigned) [Compound 93], the EC50 in the assay with HCV replicon 1A (Hepatitis C virus, 72 h) is 1.7 pM; in the assay with HCV replicon 1B (Hepatitis C virus, 72 h), 2.1 pM; with HCV replicon 1A Y93H it was 671 pM; in the assay on HCV replicon 2B, 112 pM.

On to `COC(=O)NC(C(=O)N1CCC[C@H]1c1ncc(-c2ccc3c(c2)cc2n3C(c3ccc4c(c3)OCCC4)Oc3cc(-c4cnc([C@@H]5CCCN5C(=O)[C@@H](NC(=O)OC)C(C)C)[nH]4)cc(F)c3-2)[nH]1)C1CCO[C@H](C)C1` (single isomer, unassigned) [Compound 94], for which the concentration giving a half-maximal response (EC50) in the assay with HCV replicon 1A came out at 2.3 pM; in the assay with HCV replicon 1B it was 3.3 pM; with HCV replicon 1A Y93H, 6 pM; in the assay with HCV replicon 2B it was 4 pM.
